The text below walks through data of US8796324B2, “Substituted 2-acetamido-5-aryl-1,2,4-triazolones and use thereof” (Bayer Intellectual Property GmbH, priority 2009, dated 2014).

For one test, the target named is T1, human V1a receptor (Homo sapiens, UniProt P37288).
T1 construct: expressed in transfected cells; host or cells: CHO K1 (constitutively expressing modified aequorin)
Put plainly: Cellular in vitro assay for determining the vasopressin receptor activity (aequorin luminescence). The class given is cell-based. Conditions: CHO cell line transfected with the human V1a receptor; agonist [Arg8]-vasopressin; read-out: IC50 hV1a. From the text: (§1) B-1. Cellular In Vitro Assay for Determining the Vasopressin Receptor Activity
(§2) The identification of agonists and antagonists of the V1a and V2 vasopressin receptors from humans and rats and also the quantification of the activity of the substances described here took place using recombinant cell lines. These cells derive originally from a hamster ovary epithelial cell (Chinese Hamster Ovary, CHO K1, ATCC: American Type Culture Collection, Manassas, Va. 20108, USA). The test cell lines constitutively express a modified form of the calcium-sensitive photoprotein aequorin, which, after reconstitution with the cofactor coelenterazine, emits light when there are increases in the free calcium concentration (Rizzuto R., Simpson A. W., Brini M., Pozzan T.; Nature 358 (1992) 325-327). In addition, the cells are stably transfected with the human or rat V1a or V2 receptors. In the case of the Gs-coupling V2 receptors, the cells are stably transfected with a further gene, which codes for the promiscuous Gα16 protein (Amatruda T. T., Steele D. A., Slepak V. Z., Simon M. I., Proc. Nat. Acad. Sci. USA 88 (1991), 5587-5591), either independently or as a fusion gene. The resulting vasopressin receptor test cells react to stimulation of the recombinantly expressed vasopressin receptors by intracellular release of calcium ions, which can be quantified by the resulting aequorin luminescence using a suitable luminometer (Milligan G., Marshall F., Rees S., Trends in Pharmaco. Sci. 17 (1996) 235-237).
(§3) On the day before the assay, the cells are plated out in culture medium (DMEM, 10% FCS, 2 mM glutamine, 10 mM HEPES) in 384-well microtiter plates and kept in a cell incubator (96% humidity, 5% v/v carbon dioxide, 37° C.). On the day of the assay, the culture medium is replaced by a Tyrode solution (140 mM sodium chloride, 5 mM potassium chloride, 1 mM magnesium chloride, 2 mM calcium chloride, 20 mM glucose, 20 mM HEPES), which additionally contains the cofactor coelenterazine (50 μM), and the microtiter plate is then incubated for a further 3-4 hours. The test substances in various concentrations are placed for 10 to 20 minutes in the wells of the microtiter plate before the agonist [Arg8]-vasopressin is added, and the resulting light signal is measured immediately in the luminometer. The IC50 values are calculated using the GraphPad PRISM computer program (Version 3.02).
(§4) The table below lists representative IC50 values for the compounds of the invention on the cell line transfected with the human V1a or V2 receptor: […]

Another test has as its target T2, human V2 receptor (Homo sapiens, UniProt P30518).
T2 construct: expressed in transfected cells; host or cells: CHO K1 (constitutively expressing modified aequorin; co-transfected with promiscuous G-alpha-16)
The test is described as above. The class given is cell-based. The following applies: CHO cell line transfected with the human V2 receptor (and Gα16); agonist [Arg8]-vasopressin; read-out: IC50 hV2.
Description: as §1, §2, §3, §4

By pIC50 is commonly meant the negative decadic logarithm of the IC50, by convention in mol/L.

pIC50: −log10 of the molar value. Counter-ions that a name gives are not always drawn.

T2 sequence (P30518 whole entry): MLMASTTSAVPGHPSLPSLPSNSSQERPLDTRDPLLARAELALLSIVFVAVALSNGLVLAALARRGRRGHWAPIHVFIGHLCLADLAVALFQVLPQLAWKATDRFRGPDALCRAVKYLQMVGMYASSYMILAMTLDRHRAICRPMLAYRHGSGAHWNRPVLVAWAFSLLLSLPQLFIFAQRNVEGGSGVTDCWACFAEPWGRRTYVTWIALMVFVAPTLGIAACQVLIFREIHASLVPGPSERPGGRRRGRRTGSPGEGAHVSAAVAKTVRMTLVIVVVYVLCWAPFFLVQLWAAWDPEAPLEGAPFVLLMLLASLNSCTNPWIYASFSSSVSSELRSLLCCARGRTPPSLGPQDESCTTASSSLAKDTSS
T1 sequence (P37288 whole entry): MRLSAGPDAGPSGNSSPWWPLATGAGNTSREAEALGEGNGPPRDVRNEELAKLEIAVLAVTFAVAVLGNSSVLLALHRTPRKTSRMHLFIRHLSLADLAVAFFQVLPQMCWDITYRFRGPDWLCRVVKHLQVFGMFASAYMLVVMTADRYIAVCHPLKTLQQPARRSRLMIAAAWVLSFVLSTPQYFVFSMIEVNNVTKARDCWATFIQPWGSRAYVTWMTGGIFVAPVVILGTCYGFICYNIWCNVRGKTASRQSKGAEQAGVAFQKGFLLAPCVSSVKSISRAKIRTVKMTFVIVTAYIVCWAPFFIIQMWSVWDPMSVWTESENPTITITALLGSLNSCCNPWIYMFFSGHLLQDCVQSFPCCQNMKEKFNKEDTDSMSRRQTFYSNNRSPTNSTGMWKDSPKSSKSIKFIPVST

`NCC(NC(=O)Cn1nc(-c2ccc(Cl)cc2)n(C[C@H](O)C(F)(F)F)c1=O)c1cccc(C(F)(F)F)c1` (mixture of isomers) [Example 10, N-{2-Amino-1-[3-(trifluoromethyl)phenyl]ethyl}-2-{3-(4-chlorophenyl)-5-oxo-4-[(2S)-3,3,3-trifluoro-2-hydroxypropyl]-4,5-dihydro-1H-1,2,4-triazol-1-yl}acetamide hydrochloride (diastereomer mixture)]: the pIC50 is 7.98 at human V1a receptor and 8.20 at human V2 receptor.

In the case of `CC(=O)NCC(NC(=O)Cn1nc(-c2ccc(Cl)cc2)n(C[C@H](O)C(F)(F)F)c1=O)c1cccc(C(F)(F)F)c1` (mixture of isomers) [Example 20, N-{2-(Acetylamino)-1-[3-(trifluoromethyl)phenyl]ethyl}-2-{3-(4-chlorophenyl)-5-oxo-4-[(2S)-3,3,3-trifluoro-2-hydroxypropyl]-4,5-dihydro-1H-1,2,4-triazol-1-yl}acetamide (diastereomer mixture)], the pIC50 at human V1a receptor is 8.82; on human V2 receptor, 8.20.

In the case of `O=C(Cn1nc(-c2ccc(Cl)cc2)n(C[C@H](O)C(F)(F)F)c1=O)NC(c1cccc(C(F)(F)F)c1)C(O)C(F)(F)F` (mixture of isomers) [Example 78, 2-{3-(4-Chlorophenyl)-5-oxo-4-[(2S)-3,3,3-trifluoro-2-hydroxypropyl]-4,5-dihydro-1H-1,2,4-triazol-1-yl}-N-{3,3,3-trifluoro-2-hydroxy-1-[3-(trifluoromethyl)phenyl]propyl}acetamide], the pIC50 at human V1a receptor is 7.68; at human V2 receptor it was 7.52.

As for `COc1cccc(C(CCO)NC(=O)Cn2nc(-c3ccc(Cl)cc3)n(C3CC3)c2=O)c1` (racemic) [Example 89, 2-[3-(4-Chlorophenyl)-4-cyclopropyl-5-oxo-4,5-dihydro-1H-1,2,4-triazol-1-yl]-N-[3-hydroxy-1-(3-methoxyphenyl)propyl]acetamide], the results for the pIC50 at human V1a receptor and on human V2 receptor were 5.54 and 6.54, respectively.

For `O=C(Cn1nc(-c2ccc(Cl)cc2)n(C2CC2)c1=O)NC(CO)c1cccc(C(F)(F)F)c1` (racemic) [Example 96, 2-[3-(4-Chlorophenyl)-4-cyclopropyl-5-oxo-4,5-dihydro-1H-1,2,4-triazol-1-yl]-N-{2-hydroxy-1-[3-(trifluoromethyl)phenyl]ethyl}acetamide], the pIC50 at human V1a receptor is 7.15; at human V2 receptor it was 7.40.

Consider `NC(=O)OCC(NC(=O)Cn1nc(-c2ccc(Cl)cc2)n(C[C@H](O)C(F)(F)F)c1=O)c1cccc(C(F)(F)F)c1` (single isomer, unassigned) [Example 48], for which the pIC50 is 8.28 at human V1a receptor and 8.36 on human V2 receptor.

For the compound `NC(=O)OCC(NC(=O)Cn1nc(-c2ccc(Cl)cc2)n(C[C@H](O)C(F)(F)F)c1=O)c1ccccc1C(F)(F)F` (single isomer, unassigned) [Example 51], the pIC50 is 9.00 at human V1a receptor and 8.07 on human V2 receptor.

Take `NC(=O)NCC(NC(=O)Cn1nc(-c2ccc(Cl)cc2)n(C[C@H](O)C(F)(F)F)c1=O)c1cccc(C(F)(F)F)c1` (single isomer, unassigned) [Example 57]: the pIC50 at human V1a receptor was 8.54; at human V2 receptor, 8.66.

For the compound `NC(=O)NCC(NC(=O)Cn1nc(-c2ccc(Cl)cc2)n(C[C@H](O)C(F)(F)F)c1=O)c1ccccc1C(F)(F)F` (single isomer, unassigned) [Example 60], the pIC50 at human V1a receptor is 9.30; on human V2 receptor it was 8.35.

For the compound `NC(=O)NCC(NC(=O)Cn1nc(-c2ccc(Cl)cc2)n(C[C@H](O)C(F)(F)F)c1=O)c1cccc(Cl)c1Cl` (single isomer, unassigned) [Example 62], the pIC50 on human V1a receptor is 8.44; at human V2 receptor it was 9.00.

In the case of `NC(=O)OCC(NC(=O)Cn1nc(-c2ccc(Cl)cc2)n(/C=C/C(F)(F)F)c1=O)c1cccc(C(F)(F)F)c1` (single isomer, unassigned) [Example 65, 2-[({3-(4-Chlorophenyl)-5-oxo-4-[(1E)-3,3,3-trifluoroprop-1-en-1-yl]-4,5-dihydro-1H-1,2,4-triazol-1-yl}acetyl)amino]-2-[3-(trifluoromethyl)phenyl]ethyl carbamate], the pIC50 at human V1a receptor and on human V2 receptor was 7.77 throughout.

Take `NC(=O)OCCC(NC(=O)Cn1nc(-c2ccc(Cl)cc2)n(C[C@H](O)C(F)(F)F)c1=O)c1cccc(Cl)c1Cl` (single isomer, unassigned) [Example 73]: the values for the pIC50 on human V1a receptor and on human V2 receptor were 7.97 and 8.80, respectively.

Turning to `Cc1ccccc1C(CCO)NC(=O)Cn1nc(-c2ccc(Cl)cc2)n(C[C@H](O)C(F)(F)F)c1=O` (single isomer, unassigned) [Example 87], the pIC50 is 8.42 at human V1a receptor and 8.24 on human V2 receptor.

For the compound `NC(=O)OCC(NC(=O)Cn1nc(-c2ccc(Cl)cc2)n(CCC(F)(F)F)c1=O)c1cccc(C(F)(F)F)c1` (single isomer, unassigned) [Example 112, 2-({[3-(4-Chlorophenyl)-5-oxo-4-(3,3,3-trifluoropropyl)-4,5-dihydro-1H-1,2,4-triazol-1-yl]acetyl}amino)-2-[3-(trifluoromethyl)phenyl]ethyl carbamate], the pIC50 on human V1a receptor was 8.62; at human V2 receptor, 8.22.

Regarding `COC(=O)NCC(NC(=O)Cn1nc(-c2ccc(Cl)cc2)n(CCC(F)(F)F)c1=O)c1cccc(Cl)c1Cl` (single isomer, unassigned) [Example 115, Methyl [2-({[3-(4-chlorophenyl)-5-oxo-4-(3,3,3-trifluoropropyl)-4,5-dihydro-1H-1,2,4-triazol-1-yl]acetyl}amino)-2-(2,3-dichlorophenyl)ethyl]carbamate], the values for the pIC50 on human V1a receptor and on human V2 receptor were 8.46 and 8.12, respectively.

As to `NC(=O)NCC(NC(=O)Cn1nc(-c2ccc(Cl)cc2)n(CCC(F)(F)F)c1=O)c1cccc(Cl)c1Cl` (single isomer, unassigned) [Example 121, N-[2-(Carbamoylamino)-1-(2,3-dichlorophenyl)ethyl]-2-[3-(4-chlorophenyl)-5-oxo-4-(3,3,3-trifluoropropyl)-4,5-dihydro-1H-1,2,4-triazol-1-yl]acetamide], the pIC50 was 9.05 at human V1a receptor and 8.85 at human V2 receptor.

Consider `CS(=O)(=O)NCC(NC(=O)Cn1nc(-c2ccc(Cl)cc2)n(C[C@H](O)C(F)(F)F)c1=O)c1ccccc1Cl` (single isomer, unassigned) [Example 126], for which the pIC50 at human V1a receptor and on human V2 receptor was 8.74 each time.

As to `CS(=O)(=O)CC(NC(=O)Cn1nc(-c2ccc(Cl)cc2)n(C[C@H](O)C(F)(F)F)c1=O)c1ccccc1C(F)(F)F` (single isomer, unassigned) [Example 136], the pIC50 on human V1a receptor was 8.41; on human V2 receptor, 7.62.

Turning to `CN(C)S(=O)(=O)CC(NC(=O)Cn1nc(-c2ccc(Cl)cc2)n(C[C@H](O)C(F)(F)F)c1=O)c1cccc(C(F)(F)F)c1` (single isomer, unassigned) [Example 141], the negative logarithm of the IC50 (pIC50) at human V1a receptor is 7.44; on human V2 receptor, 8.32.

In the case of `NC(=O)OCC(NC(=O)Cn1nc(-c2ccc(Cl)cc2)n(CCC(F)(F)F)c1=O)c1ccccc1C(F)(F)F` (single isomer, unassigned) [Example 144, 2-({[3-(4-Chlorophenyl)-5-oxo-4-(3,3,3-trifluoropropyl)-4,5-dihydro-1H-1,2,4-triazol-1-yl]acetyl}amino)-2-[2-(trifluoromethyl)phenyl]ethyl carbamate], the pIC50 was 8.85 on human V1a receptor and 7.86 at human V2 receptor.

With `O=C(Cn1nc(-c2ccc(Cl)cc2)n(C[C@H](O)C(F)(F)F)c1=O)NC(CN1CCOC1=O)c1cccc(C(F)(F)F)c1` (single isomer, unassigned) [Example 149], the pIC50 at human V1a receptor was 8.70; at human V2 receptor, 7.82.

`O=C(Cn1nc(-c2ccc(Cl)cc2)n(C[C@H](O)C(F)(F)F)c1=O)NC(CN1CCNC1=O)c1cccc(C(F)(F)F)c1` (single isomer, unassigned) [Example 152]: the pIC50 on human V1a receptor is 8.66; at human V2 receptor, 8.15.

As to `CSCC(NC(=O)Cn1nc(-c2ccc(Cl)cc2)n(C[C@H](O)C(F)(F)F)c1=O)c1ccccc1C(F)(F)F` (single isomer, unassigned) [Example 156], the pIC50 was 8.72 on human V1a receptor and 8.00 on human V2 receptor.
